Results published in patent US8940795B2, “Plant disease controlling composition and method for controlling plant disease” (Sumitomo Chemical Company, Limited, priority 2010, dated 2015).

Test system: gray mold fungus (Botrytis cinerea)
Assay: Cucumber leaf disk preventive test against gray mold fungus
Format: in vivo
Details: 15° C., four days
Method: True leaf of cucumber is punched out with cork borer to 13 mm in diameter to prepare a leaf disk. In 24 well microwell plate that is dispensed with 1 ml 0.8% water agar, the leaf disk is placed such that the upper side of the leaf is in an upward direction. Thereto is added 20 micro liter a testing solution prepared by mixing a dimethyl sulfoxide solution of the present compound (racemate) and a dimethyl sulfoxide solution of flutolanil to a predetermined concentration to treat the leaf disk. After confirming that the testing medical solution is dried, conidium of gray mold fungus (Botrytis cinerea) is suspended into potato dextrose broth (DIFCO) in a density of about 10^5 conidium/mL and is then subjected to a spray inoculation. After leaving to stand the leaf disk in a growth chamber set up at 15° C. for four days, an onset area on the leaf is measured and then calculated an onset area rate (hereinafter, referred to as an onset area rate of treated group). The same operation is carried out with 20 micro liter water instead of 20 micro liter a testing medicine solution to calculate an onset area rate (hereinafter, referred to an onset area rate of non-treated group). A preventive value is calculated from the above onset area rate of treated group and the onset area rate of non-treated group by the following equation: Preventive value(%)=100×(A−B)/A wherein […] The same operations as described in Test Example 1 are carried out with zoxamide instead of flutolanil, so as to calculate a preventive value. Also for comparison, the same operations as described in Test Example 1 are carried out with the exception that the testing medicine solution is substituted with a predetermined concentration of each dimethyl sulfoxide solution of the present compound (racemate) or zoxamide, so as to calculate respective preventive values. For comparison, the same operations as described in Test Example 1 are carried out with the exception that the testing medicine solution is substituted with a predetermined concentration of a dimethyl sulfoxide solution of flutolanil, so as to calculate a preventive value.

| Structure (SMILES) | preventive value (%) (zoxamide alone 0.5 ppm) | preventive value (%) (zoxamide alone 5.0 ppm) | preventive value (%) (flutolanil alone 0.5 ppm) | preventive value (%) (flutolanil alone 5.0 ppm) |
| --- | --- | --- | --- | --- |
| CCC(C)(NC(=O)c1cc(Cl)c(C)c(Cl)c1)C(=O)CCl (stereo not shown) [zoxamide] | 10 | 15 | – | – |
| CC(C)Oc1cccc(NC(=O)c2ccccc2C(F)(F)F)c1 [flutolanil] | – | – | 10 | 15 |
